Experimental data taken from article PMC11904993, “Humanized Candida and NanoBiT Assays Expedite Discovery of Bdf1 Bromodomain Inhibitors With Antifungal Potential” (Advanced Science, 2025).
“And” between values parts separate entries of the source, which are not always exact repeats. Equal entries are not always repeated. Where two headings read alike, the source gives them in different places.

Experiments:
human Brd4 BD1 = human Brd4 BD1 (Homo sapiens, UniProt O60885); assay: HTRF assay, inhibition of H4ac4 peptide binding; details: for %HTRF Signal hBrd4 BD1: Fig 2E
CaBdf1 BD2 = target: T1, CaBdf1 BD2 (Candida albicans, UniProt Q5A4W8); assay: HTRF assay, inhibition of H4ac4 peptide binding; design: species or system C. albicans
T1 construct: BD1 (residues 193–327) and BD2 (residues 361–501) from CaBdf1 (Uniprot ID Q5A4W8); made in house; host or cells: E. coli BL21(DE3)

[1] = tested on: C. glabrata strains expressing WT and mutant Bdf1; assay: Growth inhibition in liquid media, C. glabrata lab strains; details: for pEC50 growth inhibition: Fig 2C; for % Growth (OD at 600 nm): Fig 2F; for EC50: Nakaseomyces glabratus
Method: Growth on Liquid Media with C. glabrata Lab Strains: Cells were grown at 30 °C in SC+M+C‐U medium (SC medium with 5 mM methionine, 0.25 mM cysteine, without uracil) to an OD600 of 0.5–0.8. […] Plates were incubated at 30 °C and OD600 was measured using a Multiskan FC Microplate Photometer (Thermo Fisher).

T1 sequence (Q5A4W8 361-501): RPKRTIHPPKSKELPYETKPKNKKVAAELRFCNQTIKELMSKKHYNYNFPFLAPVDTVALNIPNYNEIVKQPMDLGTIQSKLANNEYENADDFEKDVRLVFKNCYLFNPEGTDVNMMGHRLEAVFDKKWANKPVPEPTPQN

## Cc1ccc(-c2nnc(C)c(NCc3ccc(C)o3)n2)cc1 [Compound 24c, 6‐methyl‐N‐((5‐methylfuran‐2‐yl)methyl)‐3‐(p‐tolyl)‐1,2,4‐triazin‐5‐amine]
Human Brd4 BD1
  IC50: > 20 µM
Human Brd4 BD1; 0.002 microM
  %HTRF Signal hBrd4 BD1: 99.94% and 101.82% and 96.40%
Human Brd4 BD1; 0.005 microM
  %HTRF Signal hBrd4 BD1: 98.75% and 96.86% and 103.69%
Human Brd4 BD1; 0.013 microM
  %HTRF Signal hBrd4 BD1: 99.02% and 101.98% and 101.10%
Human Brd4 BD1; 0.033 microM
  %HTRF Signal hBrd4 BD1: 102.19% and 101.25% and 104.58%
Human Brd4 BD1; 0.082 microM
  %HTRF Signal hBrd4 BD1: 100.31% and 103.86% and 103.22%
Human Brd4 BD1; 0.205 microM
  %HTRF Signal hBrd4 BD1: 99.94% and 102.50% and 103.66%
Human Brd4 BD1; 0.512 microM
  %HTRF Signal hBrd4 BD1: 100.22% and 100.80% and 103.20%
Human Brd4 BD1; 1.280 microM
  %HTRF Signal hBrd4 BD1: 99.57% and 100.99% and 103.81%
Human Brd4 BD1; 3.200 microM
  %HTRF Signal hBrd4 BD1: 98.88% and 63.27% and 99.81%
Human Brd4 BD1; 8.000 microM
  %HTRF Signal hBrd4 BD1: 95.80% and 101.11% and 96.69%
Human Brd4 BD1; 20.000 microM
  %HTRF Signal hBrd4 BD1: 84.01% and 92.12% and 87.26%
CaBdf1 BD2; CaBD2, 24c 0.013 microM, Exp1-2, read-out: Percent HTRF Signal
  remaining activity at 0.013 µM: 94.3%
CaBdf1 BD2; CaBD2, 24c 0.033 microM, Exp1-2, read-out: Percent HTRF Signal
  remaining activity at 0.033 µM: 96.5%
CaBdf1 BD2; CaBD2, 24c 0.082 microM, Exp1-2, read-out: Percent HTRF Signal
  remaining activity at 0.082 µM: 102%
CaBdf1 BD2; CaBD2, 24c 0.20 microM, Exp1-2, read-out: Percent HTRF Signal
  remaining activity at 0.2 µM: 102%
CaBdf1 BD2; CaBD2, 24c 0.51 microM, Exp1-2, read-out: Percent HTRF Signal
  remaining activity at […]: 97.5%
CaBdf1 BD2; CaBD2, 24c 1.28 microM, Exp1-2, read-out: Percent HTRF Signal
  remaining activity at 1.28 µM: 98.1%
CaBdf1 BD2; CaBD2, 24c 3.20 microM, Exp1-2, read-out: Percent HTRF Signal
  remaining activity at 3.2 µM: 92.6%
CaBdf1 BD2; CaBD2, 24c 8.00 microM, Exp1-2, read-out: Percent HTRF Signal
  remaining activity at 8 µM: 90.1%
CaBdf1 BD2; CaBD2, 24c 20.00 microM, Exp1-2, read-out: Percent HTRF Signal
  remaining activity at 20 µM: 74.1%
CaBdf1 BD2; HTRF, Fig S9C
  inhibition of Bdf1 BD2 from C. albicans: weakly inhibited
[1]; strain BD1 Y-F, single experiments Exp1-3
  pEC50 growth inhibition: 4.034 and 3.821
[1]; strain BD2 Y-F, single experiments Exp1-3
  pEC50 growth inhibition: 4.481 and 4.395
[1]; Fig 2D, WT C. glabrata, single experiments Exp1-3
  pEC50 (WT BDF1): 4.014 and 4.016
[1]; WT BDF1, 6.25 microM
  % Growth (OD at 600 nm): 98% and 99% and 101%
[1]; WT BDF1, 12.5 microM
  % Growth (OD at 600 nm): 95% and 97% and 99%
[1]; WT BDF1, 25 microM
  % Growth (OD at 600 nm): 88% and 91% and 95%
[1]; WT BDF1, 50 microM
  % Growth (OD at 600 nm): 65% and 71% and 69%
[1]; WT BDF1, 100 microM
  % Growth (OD at 600 nm): 44% and 45% and 46%
[1]; bdf1-bd1Y166F, 6.25 microM
  % Growth (OD at 600 nm): 99% and 101% and 98%
[1]; bdf1-bd1Y166F, 12.5 microM
  % Growth (OD at 600 nm): 102% and 92% and 98%
[1]; bdf1-bd1Y166F, 25 microM
  % Growth (OD at 600 nm): 92% and 82% and 97%
[1]; bdf1-bd1Y166F, 50 microM
  % Growth (OD at 600 nm): 88% and 74% and 81%
[1]; bdf1-bd1Y166F, 100 microM
  % Growth (OD at 600 nm): 50% and 44% and 56%
[1]; bdf1-bd1Δ, 6.25 microM
  % Growth (OD at 600 nm): 98% and 99% and 93%
[1]; bdf1-bd1Δ, 12.5 microM
  % Growth (OD at 600 nm): 93% and 98% and 97%
[1]; bdf1-bd1Δ, 25 microM
  % Growth (OD at 600 nm): 88% and 86% and 96%
[1]; bdf1-bd1Δ, 50 microM
  % Growth (OD at 600 nm): 78% and 74% and 87%
[1]; bdf1-bd1Δ, 100 microM
  % Growth (OD at 600 nm): 50% and 43% and 61%
[1]; bdf1-bd2Y343F, 6.25 microM
  % Growth (OD at 600 nm): 89% and 90% and 88%
[1]; bdf1-bd2Y343F, 12.5 microM
  % Growth (OD at 600 nm): 80% and 76% and 84%
[1]; bdf1-bd2Y343F, 25 microM
  % Growth (OD at 600 nm): 68% and 61% and 66%
[1]; bdf1-bd2Y343F, 50 microM
  % Growth (OD at 600 nm): 40% and 46%
[1]; bdf1-bd2Y343F, 100 microM
  % Growth (OD at 600 nm): 20% and 22%
[1]; bdf1-bd2Δ, 6.25 microM
  % Growth (OD at 600 nm): 68% and 85%
[1]; bdf1-bd2Δ, 12.5 microM
  % Growth (OD at 600 nm): 64% and 70% and 59%
[1]; bdf1-bd2Δ, 25 microM
  % Growth (OD at 600 nm): 40% and 63% and 41%
[1]; bdf1-bd2Δ, 50 microM
  % Growth (OD at 600 nm): 30% and 38% and 23%
[1]; Fig 3D, 50 µM, WT BDF1-flag, Exp 1-3
  %Growth: 54.5% and 57.2% and 54.2%
[1]; read-out: EC50 (μM) growth inhibition, strain WT BDF1 (both BDs active)
  EC50: 90 µM
[1]; read-out: EC50 (μM) growth inhibition, strain bdf1-Y166F (active BD: BD2)
  EC50: ~100 µM
[1]; read-out: EC50 (μM) growth inhibition, strain bdf1-Y343F (active BD: BD1)
  EC50: 36.6 ± 33 µM
